# Biological target: STAT3 (Homo sapiens, UniProt P40763)
# Assay: Quantitation of STAT3 degradation in A549 cells by Western blot
# Type: cell-based
# Set-up: expressed in transfected cells; host or cells: A549
# Details: read-out: A549 DC50, 24 hours, tested up to 30 μM or 10 μM
# Summary of the method: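 A549 cells treated 24 h at 37° C with compound at 30, 10, 3, 1, 0.3 μM or DMSO; RIPA lysates analysed by SDS-PAGE/Western blot for total STAT3, β-actin as loading control, LI-COR fluorescence read-out. DC50 derived by sigmoidal fit of dose-dependent degradation.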
# Chain of STAT3 (P40763 whole entry): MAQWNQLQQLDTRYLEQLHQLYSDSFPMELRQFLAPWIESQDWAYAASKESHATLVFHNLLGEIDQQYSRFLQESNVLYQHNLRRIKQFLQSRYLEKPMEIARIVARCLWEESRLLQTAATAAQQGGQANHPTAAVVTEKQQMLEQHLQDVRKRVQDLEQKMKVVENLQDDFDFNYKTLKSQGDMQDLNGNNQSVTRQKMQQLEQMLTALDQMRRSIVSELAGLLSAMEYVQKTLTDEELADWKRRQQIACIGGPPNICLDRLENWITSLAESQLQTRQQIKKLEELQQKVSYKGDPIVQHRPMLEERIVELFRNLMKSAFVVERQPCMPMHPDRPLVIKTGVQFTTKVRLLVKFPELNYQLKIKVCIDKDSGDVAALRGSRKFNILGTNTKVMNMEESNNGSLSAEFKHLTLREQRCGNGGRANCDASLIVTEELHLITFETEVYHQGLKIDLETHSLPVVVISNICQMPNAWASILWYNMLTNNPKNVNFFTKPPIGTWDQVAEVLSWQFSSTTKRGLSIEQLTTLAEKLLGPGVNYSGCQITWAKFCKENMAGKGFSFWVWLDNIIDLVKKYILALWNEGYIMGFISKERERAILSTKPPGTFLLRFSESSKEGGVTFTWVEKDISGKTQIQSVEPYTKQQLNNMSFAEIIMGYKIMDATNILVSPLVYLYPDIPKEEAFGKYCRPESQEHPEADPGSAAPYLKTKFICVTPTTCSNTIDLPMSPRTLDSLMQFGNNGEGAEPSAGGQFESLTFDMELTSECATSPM
row,SMILES,DC50 [µM]
1,"C/C(=C\C(=O)N[C@H]1CCc2cccc3c2N(C1=O)[C@H](C(=O)N[C@@H](CCC(N)=O)[C@@H](C)OCc1ccc(CCCCCOCCCc2cccc4c2n(C)c(=O)n4C2CCC(=O)NC2=O)cc1)C3)c1ccc(C(F)(F)P(=O)(OCOC(=O)C(C)(C)C)OCOC(=O)C(C)(C)C)cc1 (stereo partly drawn) [Compound I-38, [([4-[(1E)-1-[[(2S,11S)-2-[[(3S,4R)-1-carbamoyl-4-[[4-(5-[3-[1-(2,6-dioxopiperidin-3-yl)-3-methyl-2-oxo-1,3-benzodiazol-4-yl]propoxy]pentyl)phenyl]methoxy]pentan-3-yl]carbamoyl]-12-oxo-1-azatricyclo[6.4.1.0^[4,13]]trideca-4(13),5,7-trien-11-yl]carbamoyl]prop-1-en-2-yl]phenyl]difluoromethyl([(2,2-dimethylpropanoyl)oxy]methoxy)phosphoryl)oxy]methyl 2,2-dimethylpropanoate]",> 10
2,C/C(=C\C(=O)N[C@H]1CN(C(=O)CCCCCCc2ccc3c(c2)n(C)c(=O)n3C2CCC(=O)NC2=O)CC[C@H]2CC[C@@H](C(=O)N[C@@H](CCC(N)=O)C(=O)NC(c3ccccc3)c3ccccc3)N2C1=O)c1ccc(C(F)(F)P(=O)(O)O)cc1 (stereo partly drawn) [Compound I-112],< 30
3,C/C(=C\C(=O)N[C@H]1CCc2cccc3c2N(C1=O)[C@H](C(=O)N[C@@H](CCC(N)=O)[C@@H](C)OCc1ccc(CCCCC(=O)N[C@H](C(=O)N2C[C@@H](O)C[C@H]2C(=O)NCc2ccc(-c4scnc4C)cc2)C(C)(C)C)cc1)C3)c1ccc(C(F)(F)P(=O)(OCOC(=O)C(C)(C)C)OCOC(=O)C(C)(C)C)cc1 [Compound I-2],> 30
4,"C[C@@H](OCc1ccc(CCCCCCc2ccc3c(c2)n(C)c(=O)n3C2CCC(=O)NC2=O)cc1)[C@H](CCC(N)=O)NC(=O)[C@@H]1Cc2cccc3c2N1C(=O)[C@@H](NC(=O)c1cc2cc(C(=O)P(=O)(O)O)ccc2[nH]1)CC3 (stereo partly drawn) [Compound I-118, diammonium 2-[[(2S,11S)-2-[[(3S,4R)-1-carbamoyl-4-[(4-[6-[1-(2,6-dioxopiperidin-3-yl)-3-methyl-2-oxo-1,3-benzodiazol-5-yl]hexyl]phenyl)methoxy]pentan-3-yl]carbamoyl]-12-oxo-1-azatricyclo[6.4.1.0^[4,13]]trideca-4(13),5,7-trien-11-yl]carbamoyl]-1H-indole-5-carbonylphosphonate]",> 30
5,"C/C(=C\C(=O)N[C@H]1CN(C(=O)CCCCCCCc2ccc3c(c2)n(C)c(=O)n3C2CCC(=O)NC2=O)CC[C@H]2CC[C@@H](C(=O)N[C@@H](CCC(N)=O)C(=O)NC(c3ccccc3)c3ccccc3)N2C1=O)c1ccc(C(F)(F)P(=O)(O)O)cc1 (stereo partly drawn) [Compound I-113, [4-[(1E)-1-[[(5S,8S,10aR)-8-[[(1S)-3-carbamoyl-1-(diphenylmethylcarbamoyl)propyl]carbamoyl]-3-[8-[1-(2,6-dioxopiperidin-3-yl)-3-methyl-2-oxo-1,3-benzodiazol-5-yl]octanoyl]-6-oxo-octahydropyrrolo[1,2-a][1,5]diazocin-5-yl]carbamoyl]prop-1-en-2-yl]phenyl]difluoromethylphosphonic acid]",> 30
6,"C/C(=C\C(=O)N[C@H]1CN(C(=O)CCCCCC#Cc2cccc3c2CN(C2CCC(=O)NC2=O)C3=O)CC[C@H]2CC[C@@H](C(=O)N[C@@H](CCC(N)=O)C(=O)NC(c3ccccc3)c3ccccc3)N2C1=O)c1ccc(C(F)(F)P(=O)(O)O)cc1 (stereo partly drawn) [Compound I-115, ((4-((E)-4-(((5S,8S,10aR)-8-(((S)-5-amino-1-(benzhydrylamino)-1,5-dioxopentan-2-yl)carbamoyl)-3-(8-(2-(2,6-dioxopiperidin-3-yl)-1-oxoisoindolin-4-yl)oct-7-ynoyl)-6-oxodecahydropyrrolo[1,2-a][1,5]diazocin-5-yl)amino)-4-oxobut-2-en-2-yl)phenyl)difluoromethyl)phosphonic acid]",< 30
7,"Cc1ncsc1-c1ccc(CNC(=O)[C@@H]2C[C@@H](O)CN2C(=O)[C@@H](NC(=O)CCC#Cc2ccc(CO[C@H](C)[C@H](CCC(N)=O)NC(=O)[C@@H]3Cc4cccc5c4N3C(=O)[C@@H](NC(=O)c3cc4cc(C(=O)P(=O)(O)O)ccc4[nH]3)CC5)cc2)C(C)(C)C)cc1 [Compound I-96, diammonium 2-[[(2S,11S)-2-[[(3S,4R)-1-carbamoyl-4-[[4-(4-[[(2S)-1-[(2S,4R)-4-hydroxy-2-([[4-(4-methyl-1,3-thiazol-5-yl)phenyl]methyl]carbamoyl)pyrrolidin-1-yl]-3,3-dimethyl-1-oxobutan-2-yl]carbamoyl]but-1-yn-1-yl)phenyl]methoxy]pentan-3-yl]carbamoyl]-12-oxo-1-azatricyclo[6.4.1.0^[4,13]]trideca-4(13),5,7-trien-11-yl]carbamoyl]-1H-indole-5-carbonylphosphonate]",> 30
8,Cc1ncsc1-c1ccc(CNC(=O)[C@@H]2C[C@@H](O)CN2C(=O)[C@@H](NC(=O)CCCC#Cc2ccc(CO[C@H](C)[C@H](CCC(N)=O)NC(=O)[C@@H]3Cc4cccc5c4N3C(=O)[C@@H](NC(=O)c3cc4cc(C(=O)P(=O)(O)O)ccc4[nH]3)CC5)cc2)C(C)(C)C)cc1 [Compound I-86],< 30
9,C/C(=C\C(=O)N[C@H]1CCc2cccc3c2N(C1=O)[C@H](C(=O)N[C@@H](CCC(N)=O)[C@@H](C)OCc1ccc(CCCCCCC(=O)N[C@H](C(=O)N2C[C@H](O)C[C@H]2C(=O)NCc2ccc(-c4scnc4C)cc2)C(C)(C)C)cc1)C3)c1ccc(C(F)(F)P(=O)(OCOC(=O)C(C)(C)C)OCOC(=O)C(C)(C)C)cc1 [Compound I-28],< 30
10,C/C(=C\C(=O)N[C@H]1CCc2cccc3c2N(C1=O)[C@H](C(=O)N[C@@H](CCC(N)=O)[C@@H](C)OCc1ccc(CCCOCCOCCOCCOCCCc2ccc4c(c2)n(C)c(=O)n4C2CCC(=O)NC2=O)cc1)C3)c1ccc(C(F)(F)P(=O)(OCOC(=O)C(C)(C)C)OCOC(=O)C(C)(C)C)cc1 (stereo partly drawn) [Compound I-60],> 30
11,"C/C(=C\C(=O)N[C@H]1CCc2cccc3c2N(C1=O)[C@H](C(=O)N[C@@H](CCC(N)=O)[C@@H](C)OCc1ccc(CCCCC(=O)N[C@H](C(=O)N2C[C@H](O)C[C@H]2C(=O)NCc2ccc(-c4scnc4C)cc2)C(C)(C)C)cc1)C3)c1ccc(C(F)(F)P(=O)(OCOC(=O)C(C)(C)C)OCOC(=O)C(C)(C)C)cc1 [Compound I-8, (2S,4R)-1-[(2S)-2-[5-[4-([[(2R,3S)-3-[[(2S,11S)-11-amino-12-oxo-1-azatricyclo[6.4.1.0^[4,13]]trideca-4(13),5,7-trien-2-l]formamido]-5-carbamoylpentan-2-yl]oxy]methyl)phenyl]pentanamido]-3,3-dimethylbutanoyl]-4-hydroxy-N-[[4-(4-methyl-1,3-thiazol-5-yl)phenyl]methyl]pyrrolidine-2-carboxamide]",< 30
12,Cc1ncsc1-c1ccc(CNC(=O)[C@@H]2C[C@@H](O)CN2C(=O)[C@@H](NC(=O)CCCCCCc2ccc(CO[C@H](C)[C@H](CCC(N)=O)NC(=O)[C@@H]3Cc4cccc5c4N3C(=O)[C@@H](NC(=O)c3cc4cc(C(=O)P(=O)(O)O)ccc4[nH]3)CC5)cc2)C(C)(C)C)cc1 [Compound I-100],< 30
13,C/C(=C\C(=O)N[C@H]1CCc2cccc3c2N(C1=O)[C@H](C(=O)N[C@@H](CCC(N)=O)[C@@H](C)OCc1ccc(CCOCCOCCOCC(=O)N[C@H](C(=O)N2C[C@H](O)C[C@H]2C(=O)NCc2ccc(-c4scnc4C)cc2)C(C)(C)C)cc1)C3)c1ccc(C(F)(F)P(=O)(OCOC(=O)C(C)(C)C)OCOC(=O)C(C)(C)C)cc1 [Compound I-30],> 10
14,"Cc1ncsc1-c1ccc(CNC(=O)[C@@H]2C[C@@H](O)CN2C(=O)[C@@H](NC(=O)CCCCCc2ccc(CO[C@H](C)[C@H](CCC(N)=O)NC(=O)[C@@H]3Cc4cccc5c4N3C(=O)[C@@H](NC(=O)c3cc4cc(C(=O)P(=O)(O)O)ccc4[nH]3)CC5)cc2)C(C)(C)C)cc1 [Compound I-117, (2-(((3S,6S)-6-(((2R,3S)-6-amino-2-((4-(6-(((S)-1-((2S,4R)-4-hydroxy-2-((4-(4-methylthiazol-5-yl)benzyl)carbamoyl)pyrrolidin-1-yl)-3,3-dimethyl-1-oxobutan-2-yl)amino)-6-oxohexyl)benzyl)oxy)-6-oxohexan-3-yl)carbamoyl)-4-oxo-1,2,3,4,6,7-hexahydroazepino[3,2,1-hi]indol-3-yl)carbamoyl)-1H-indole-5-carbonyl)phosphonic acid]",< 30
15,C/C(=C\C(=O)N[C@H]1CCc2cccc3c2N(C1=O)[C@H](C(=O)N[C@@H](CCC(N)=O)[C@@H](C)OCc1ccc(CCC(=O)N[C@H](C(=O)N2C[C@H](O)CC2C(=O)NCc2ccc(-c4scnc4C)cc2)C(C)(C)C)cc1)C3)c1ccc(C(F)(F)P(=O)(OCOC(=O)C(C)(C)C)OCOC(=O)C(C)(C)C)cc1 (stereo partly drawn) [Compound I-12],> 30
16,C/C(=C\C(=O)N[C@H]1CCc2cccc3c2N(C1=O)[C@H](C(=O)N[C@@H](CCC(N)=O)[C@@H](C)OCc1ccc(CCCNC(=O)COCCCc2ccc4c(c2)n(C)c(=O)n4C2CCC(=O)NC2=O)cc1)C3)c1ccc(C(F)(F)P(=O)(OCOC(=O)C(C)(C)C)OCOC(=O)C(C)(C)C)cc1 (stereo partly drawn) [Compound I-68],> 30
17,C/C(=C\C(=O)N[C@H]1CCc2cccc3c2N(C1=O)[C@H](C(=O)N[C@@H](CCC(N)=O)[C@@H](C)OCc1ccc(CCCCC(=O)N[C@H](C(=O)N2C[C@H](O)C[C@H]2C(=O)NC2(c4ccc(-c5scnc5C)cc4)CC2)C(C)(C)C)cc1)C3)c1ccc(C(F)(F)P(=O)(O)O)cc1 [Compound I-92],> 30
18,C/C(=C\C(=O)N[C@H]1CCc2cccc3c2N(C1=O)[C@H](C(=O)N[C@@H](CCC(N)=O)[C@@H](C)OCc1ccc(CCCOCCOCCOCCCc2ccc4c(c2)n(C)c(=O)n4C2CCC(=O)NC2=O)cc1)C3)c1ccc(C(F)(F)P(=O)(OCOC(=O)C(C)(C)C)OCOC(=O)C(C)(C)C)cc1 (stereo partly drawn) [Compound I-55],> 30

# From US12077555B2, “STAT degraders and uses thereof” (Kymera Therapeutics, Inc., priority 2019, dated 2024)
